# US20150301067A1, “METHODS AND ASSAYS FOR FACIOSCAPULOHUMERAL MUSCULAR DYSTROPHY” (UNIVERSITY OF WASHINGTON THROUGH ITS CENTER FOR …, priority 2012, published 2015)
# Entries after “also recorded” stand apart in the source; their conditions may differ.
# Experiments:
# DUX4 promoter = experiment: D4Z4(FFL) DUX4 promoter luciferase reporter in C2C12 cells; assay type: cell-based; conditions: 3 μM GSKi, vs DMSO
# Protocol: The D4Z4 regulatory region controlling the expression of DUX4^31 was subcloned upstream of the open reading from of the pGL3-basic vector (pGL3) to make D4Z4(FFL). The D4Z4(FFL) was excised using XbaI/SpeI restriction enzymes and ligated into the SpeI site of a 3rd generation lentiviral vector multiple cloning site (pRRL-sinc-PPT-MCS; Gift from Dr. Grant Trobridge).
# Cells transduced with D4Z4(FFL) lentivirus vector were seeded in a 96 well dish. Thirty minutes prior to the assay, Hoescht Dye was added to the cell culture medium to a final concentration of 5 μm, and 30 min later the plate was analyzed for DNA content by measuring fluorescence at 355 nm using a multiwell plate reader (ENVISION; PERKIN-ELMER). An equal volume of STEADY-GLO (PROMEGA) was added to each well, and transferred to an opaque dish. Luminescence was read using the plate reader, and normalized to DNA content for each well.
# FSHD myotubes = experiment: Cell viability assay (ATP content normalized to DNA content); assay type: cell-based, human; conditions: cultured in the absence or presence of GSKi
# Protocol: Hoescht Dye was added to cells in culture for 30 minutes at a final concentration of 5 μM. Following detachment with trypsin a 50 μL aliquot of the cells was assayed for fluorescence at 355 nm to give an absorbance value for DNA content. An equal volume of CELL TITRE GLO (PROMEGA) was then added to the aliquot, and luminescence was measured. The luminescent value was normalized to the absorbance value for DNA content.
# DUX4 [1] = experiment: RT PCR of DUX4 transcripts in primary human cells; assay type: cell-based; conditions: normal(NR201) and FSHD2(2305) primary human cells, 3 μM GSKi
# Protocol: (§1) Primary human myoblasts were obtained by written informed consent through the Fields Center at the University of Rochester cell bank. Myoblasts were grown in F10 medium (INVITROGEN, Carlsbad, Calif.) supplemented with 20% fetal bovine serum (FBS; THERMO SCIENTIFIC (HYCLONE), and 50 U/50 μg penicillin/streptomycin (Pen-Strep; INVITROGEN), 10 ng bFGF (INVITROGEN), and 1 μM dexamethasone (SIGMA ALDRICH; St. Louis, […].)^9. Differentiation was induced using F10 medium supplemented with 1% equine serum and ITS supplement (insulin 0.1%, 0.000067% sodium selenite, 0.055% transferrin; INVITROGEN), or in DMEM:F12 (1:1) with 3.151 g/L glucose, 10 mM non-essential amino acids (INVITROGEN), […] sodium pyruvate, 20% knockout serum replacer (INVITROGEN, #10828010). Pharmacological inhibitor of glycogen synthase kinase-3-β (GSKi) was used at a final concentration of 3 μM (CHIR99021, STEMGENT; Cambridge. Mass.). Recombinant human Wnt3A was used at a concentration of 250 ng/mL, and confirmed to be bioactive prior to use in the assays described herein.
# RNA was isolated by TRIZOL extraction according to the manufacturers protocol (INVITROGEN), except that the final ethanol precipitate was resuspended 1×DNase I buffer and 5 U DNase I for 15 mins and the RNA was extracted with phenol/chloroform and precipitated with ethanol using RNase-free glycogen (NEW ENGLAND BIOLABS) as a carrier. […]
# FSHD-myotubes = experiment: DUX4-mediated myotube death / apoptosis in FSHD myotubes differentiated in KOSR medium; assay type: cell-based, human; conditions: for DUX4-mediated myotube death: FSHD-myotubes, KOSR differentiation medium, data not shown
# Protocol: Primary human myoblasts were obtained by written informed consent through the Fields Center at the University of Rochester cell bank. […] Pharmacological inhibitor of glycogen synthase kinase-3-β (GSKi) was used at a final concentration of 3 μM (CHIR99021, STEMGENT; Cambridge. Mass.).
# (§2) Immunofluorescent staining for DUX4 was performed using the E5-5 rabbit monoclonal antibody to the C-terminus of DUX4 ^34. Staining was performed by fixing the cells in 4% paraformaldehyde for 10 mins at room temperature, washing with PBS, permeablizing with 0.5% TritonX-100 in PBS for 10 mins at room temperature. The cells were then washed again in PBS and incubated overnight in a 1:10 dilution of the E5-5 antibody. The following day, the cells were washed 3×5 min in PBS and stained using a fluorescent conjugated secondary goat-anti rabbit secondary antibody for 1-2 hr at room temperature. Following a final wash, the cells were counterstained with 4′,6-Diamidino-2-phenylindole dihydrochloride (DAPI, SIGMA ALDRICH), and visualized by microscopy using UV illumination.
# To quantify DUX4 expression, the Nikon Ti Eclipse microscope was programmed using the Nikon Elements software to take 36 pictures at random on a 35 mm culture dish, or to scan an entire well of a 384 well dish. These images were then manually inspected and DUX4 (+) nuclei counted. To determine the myotube index, the Nikon Elements software was used to create binary masks of the DAPI and MHC channels for each image. This technique created a border around each nucleus or cluster of nuclei which could then be used to measure the sum pixel intensity from the DAPI channel. The average sum pixel intensity for single nuclei from each image was determined, and used to calculate the number of nuclei within clusters. By intersecting the binary images from the DAPI and MHC channels the inventors could exclude the nuclei that were outside of MHC(+) myotubes, and create a myotube fusion index. The myotube fusion index was compared to manual counts to confirm accuracy of the calculations.
# DUX4 [2] = experiment: Immunofluorescent count of DUX4(+) nuclei in MHC(+) myotubes; assay type: cell-based, human; conditions: for reduction in the number of nuclei expressing DUX4: FSHD1(2349) myotubes, KOSR medium
# Protocol: as §1
# as §2, with “Following a final wash, the cells were counterstained with 4′,6-Diamidino-2-phenylindole dihydrochloride (DAPI, SIGMA ALDRICH), and visualized by microscopy using UV illumination.” left out
# To quantify DUX4 expression, the Nikon Ti Eclipse microscope was programmed using the Nikon Elements software to take 36 pictures at random on a 35 mm culture dish, or to scan an entire well of a 384 well dish. These images were then manually inspected and DUX4 (+) nuclei counted. […] The average sum pixel intensity for single nuclei from each image was determined, and used to calculate the number of nuclei within clusters. […]
compound,measurement,setting,value
Cc1c[nH]c(-c2cnc(NCCNc3ccc(C#N)cn3)nc2-c2ccc(Cl)cc2Cl)n1 [GSKi],upregulation of DUX4 expression during myotube formation (luciferase activity normalized to DNA content),DUX4 promoter,reduced the characteristic upregulation of DUX4 expression
same,ATP content of myoblasts or myotubes,FSHD myotubes,No difference
same,upregulation of DUX4 expression during myotube formation (DUX4 transcripts),DUX4 [1],reduced the characteristic upregulation of DUX4 expression
same,myotube apoptosis,"FSHD-myotubes; FSHD myotubes, GSKi treatment alone (3 μM)",did not prevent myotube apoptosis; also recorded: insufficient to prevent apoptosis
same,reduction in the number of DUX4(+) nuclei in myotubes,"DUX4 [2]; FSHD myoblasts differentiated in the presence of 3 μM GSKi, three cell lines",greater than 50%
O=C(NCc1ccccc1)c1csc(Nc2ccncn2)n1 [Thiazovivin],DUX4-mediated myotube death,FSHD-myotubes,also prevented DUX4-mediated myotube death
same,reduction in the number of nuclei expressing DUX4,DUX4 [2]; 0.5 μM Thiazovivin,10 fold
C[C@@H](N)[C@H]1CC[C@H](C(=O)Nc2ccncc2)CC1 [Y-27632],DUX4-mediated myotube death,FSHD-myotubes,also prevented DUX4-mediated myotube death
same,reduction in the number of nuclei expressing DUX4,DUX4 [2]; 10 μM Y-27632,10 fold
O=C1O[C@H]([C@@H](O)CO)C(O)=C1O [ascorbic acid],DUX4-mediated myotube death,FSHD-myotubes,observed DUX4-dependent myotube apoptosis despite treatments
Cc1ccc(C(=O)Cn2c3c(sc2=N)CCCC3)cc1 [pifithrin-α],DUX4-mediated myotube death,FSHD-myotubes,efficiently prevented DUX4-mediated myotube death
OCCS [β-mercapto-ethanol],DUX4-mediated myotube death,FSHD-myotubes,observed DUX4-dependent myotube apoptosis despite treatments
Arsenic trioxide,DUX4-mediated myotube death,FSHD-myotubes,efficiently prevented DUX4-mediated myotube death
